# Data: the supplement of paper PMC10011410
# ± gives the standard deviation of the averaged measurements.
# Tests used:
# [1] = test system: U-2 OS; experiment: intracellular GSH:GSSG ratio (calculated); higher = more reduced glutathione pool; settings: 24 h
# Protocol: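 Intracellular glutathione in U-2 OS cells after 24 h compound treatment at 5, 10 and 20 uM (some at 40 and 80 uM). Total glutathione and GSSG were measured with the GSH/GSSG-Glo kit, and the GSH:GSSG ratio was calculated. Mean of five technical replicate plates.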
# [2] = test system: U-2 OS; experiment: cell viability (CellTiter-Glo) relative to DMSO (% of control); higher = more viable; settings: 24 h
# Protocol: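 Cell viability of U-2 OS cells by CellTiter-Glo after 24 h compound treatment at 5, 10 and 20 uM (some at 40 and 80 uM), measured in parallel with the glutathione assay, as percent of DMSO control. Five technical replicate plates, averaged.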
# [3] = test system: U-2 OS; experiment: total intracellular glutathione (GSH + GSSG) relative to DMSO (% of control); higher = more glutathione; settings: 24 h
# Protocol: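 Total intracellular glutathione (GSH + GSSG) in U-2 OS cells by GSH/GSSG-Glo after 24 h compound treatment at 5, 10 and 20 uM (some at 40 and 80 uM), as percent of DMSO control. Five technical replicate plates, averaged.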
# [4] = test system: U-2 OS; experiment: cell painting activity score (Mahalanobis distance from DMSO wells); higher = stronger morphological phenotype; settings: 24 h
# Method in brief: (§1)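 In this cell painting assay, roughly 1,500 U-2 OS cells per well in 384-well plates were pin-tool treated at 37 °C for 24 h, typically at six 2-fold steps from 20 μM down to 625 nM. Cells were stained with MitoTracker, concanavalin A, phalloidin, wheat germ agglutinin, Hoechst and SYTO 14, imaged on an Opera Phenix, and analysed in CellProfiler with normalization to same-plate DMSO cells. Reported values are means of four replicate plates, with the activity score defined as the Mahalanobis distance from DMSO wells and cell count defined relative to DMSO wells.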
# [5] = test system: U-2 OS; experiment: relative cell count vs DMSO (cell painting) (fraction of DMSO control); higher = more cells remaining (less cytotoxic); settings: 24 h
# Method in brief: as §1
# [6] = test system: U-2 OS; experiment: AUC of culture confluence over time (live-cell imaging) (AUC (confluence % x time)); higher = more confluent culture (less growth inhibition)
# Method in brief: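 Each value is the area under a curve of confluence over time for U-2 OS cells. The cells, in F-12K medium with 10% FBS, were plated at 750 per well in 384-well plates and dosed by pin tool 24 h later, most compounds at 20, 10 and 5 μM with 0.2% DMSO. They were held at 37 °C and imaged every 4 h for up to 60 h.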
SMILES,intracellular GSH:GSSG ratio ([1]; 5 µM),intracellular GSH:GSSG ratio ([1]; 10 µM),intracellular GSH:GSSG ratio ([1]; 20 µM),intracellular GSH:GSSG ratio ([1]; 40 µM),intracellular GSH:GSSG ratio ([1]; 80 µM),cell viability ([2]; 5 µM),cell viability ([2]; 10 µM),cell viability ([2]; 20 µM),cell viability ([2]; 40 µM),cell viability ([2]; 80 µM),total intracellular glutathione ([3]; 5 µM),total intracellular glutathione ([3]; 10 µM),total intracellular glutathione ([3]; 20 µM),total intracellular glutathione ([3]; 40 µM),total intracellular glutathione ([3]; 80 µM),cell painting activity score ([4]; 0.625 µM),cell painting activity score ([4]; 1.25 µM),cell painting activity score ([4]; 2.5 µM),cell painting activity score ([4]; 5 µM),cell painting activity score ([4]; 10 µM),cell painting activity score ([4]; 20 µM),cell painting activity score ([4]; 40 µM),cell painting activity score ([4]; 80 µM),relative cell count ([5]; 0.625 µM),relative cell count ([5]; 1.25 µM),relative cell count ([5]; 2.5 µM),relative cell count ([5]; 5 µM),relative cell count ([5]; 10 µM),relative cell count ([5]; 20 µM),relative cell count ([5]; 40 µM),relative cell count ([5]; 80 µM),AUC of culture confluence over time ([6]; 5 µM),AUC of culture confluence over time ([6]; 10 µM),AUC of culture confluence over time ([6]; 20 µM),AUC of culture confluence over time ([6]; 40 µM),AUC of culture confluence over time ([6]; 80 µM)
COc1ccc(/C(Cl)=C(/C=O)c2ccc(OC)cc2)cc1,22.2,14.8,3.39,4.6,1.06,102 ± 5.1,87.1 ± 4.2,49.8 ± 6,44.2 ± 3.5,6.75 ± 0.88,115 ± 4.6,108 ± 6.8,51.8 ± 4.8,49.4 ± 2.6,8.12 ± 0.4,6.48,7.76,8.89,10.2,11.7,14.5,16.2,34,0.912,0.934,0.941,0.937,0.849,0.395,0.442,0.0713,,,,,
COc1cc(/C=C/C(=O)CC(=O)/C=C/c2ccc(O)c(OC)c2)ccc1O,16.9,10.3,6.3,4.46,0.7,101 ± 7.1,90 ± 6.6,70.2 ± 3.2,40.9 ± 2.8,36.2 ± 3.8,112 ± 20,116 ± 3.4,100 ± 5.8,44.2 ± 2.1,41.5 ± 3.5,3.83,3.58,4.65,6.94,9.69,10.7,,,0.919,0.894,0.876,0.892,0.772,0.482,,,,,,,
CCOc1ccccc1-n1c(C(C)N2CCN(C(=O)COc3ccc(Cl)cc3)CC2)nc2ccccc2c1=O (configuration not stated),,,,,,102 ± 3.5,95.2 ± 4.2,40.6 ± 14,,,10.4 ± 0.54,2.5 ± 0.32,1.15 ± 0.16,,,6.32,5.84,6.59,9.13,10.4,14.2,,,0.983,0.945,0.996,0.969,0.922,0.508,,,45,40,39.9,,
O=C1C(Cl)=C(NCCN2CCOCC2)C(=O)c2ncccc21,,,,,,0.868 ± 0.067,0.657 ± 0.091,0.819 ± 0.053,,,1.89 ± 0.18,2.12 ± 0.18,1.91 ± 0.3,,,5.61,10.4,14.7,21.2,26.9,26.9,,,0.808,0.755,0.474,0.317,0.049,0.0399,,,16.5,14.9,12,,
O=C1C(NCCN2CCOCC2)=C(Cl)C(=O)c2ncccc21,,,,,,0.456 ± 0.11,0.267 ± 0.043,0.463 ± 0.11,,,2.27 ± 0.32,1.68 ± 0.27,2.13 ± 0.32,,,13.7,13.9,19.1,25.9,25.2,24.1,,,0.572,0.496,0.191,0.0808,0.0881,0.111,,,13.2,12.9,13,,
COc1cc(/C=C/c2cc(/C=C/c3ccc(O)c(OC)c3)n(-c3ccc(C(=O)[O-])cc3)n2)ccc1O.[Na+],40,33,36.1,30.8,11.8,101 ± 2.3,95.6 ± 2.5,93.6 ± 3.2,89.6 ± 3.4,68.4 ± 3.8,,,,,,7.1,4.98,6.19,4.45,6.38,6.87,5.98,9,1.04,1.08,1.05,1.07,1.09,1.05,0.866,0.789,45.1,42.2,42.1,27.3,25.3
CN(C)C/C=C/C(=O)Nc1cc2c(Nc3ccc(F)c(Cl)c3)ncnc2cc1O[C@H]1CCOC1,,,,,,63 ± 4,52.4 ± 3.5,47.2 ± 2.5,,,101 ± 4.4,110 ± 3.7,105 ± 2.6,,,8.62,12.1,12.2,11.2,12.6,18.5,,,0.955,0.955,0.877,0.894,0.538,0.275,,,,,,,
CCCC[S@](=N)(=O)CC[C@H](N)C(=O)O,,,,,,101 ± 5.1,99.5 ± 3.6,95 ± 4.3,101 ± 6.9,106 ± 4,19.6 ± 2,16.8 ± 2.1,14.1 ± 1.3,11 ± 1.6,10.7 ± 1,3.99,4.5,4.98,4.52,4,4.46,,,0.986,1.04,0.992,1.04,1.01,1.06,,,,,,,
